# Patent US20170081698A1, “SURVIVAL ASSAYS FOR METAKARYOTIC STEM CELLS” (priority 2014, published 2017)
# Entries after “also recorded” stand apart in the source; their conditions may differ.
# Legend:
# [1] = tested on: HT-29 cells; assay: Survival assay counting large colonies of HT-29 cells plated as single cells in T-flasks, with replating of surviving colonies; format: cell-based, human; conditions: for sensitivity of eukaryotic cells relative to metakaryotes to killing: cultures of cells derived from human tumors; for number of immortal colonies: HT-29 cultures; for nature of surviving colonies (metakaryotic cells, growth upon passaging): HT-29, appropriate concentrations and durations of exposure; for treatment level above which large colonies did not contain metakaryotic cells and did not grow further upon replating (mortal colonies): HT-29, concentration x duration of exposure; for stem cell number, by fraction of treated cells giving large, growing immortal colonies: HT-29 and CAPAN-1 lines; for exposure period required to assure killing greater than 99% of metakaryotic stem cells: HT-29 or CAPAN-1 cell cultures, certain concentrations; for applicants' interpretation of selectivity (metakaryotic stem cells versus eukaryotic cells): HT-29 cell population
# From the text: Large colonies visible to the eye and containing approximately 250 or more cells are enumerated manually or by an electronic colony counter adjusted to recognize colonies of these sizes.
# As a practical tactic, the total number of large colonies (>250 cells) are counted and the number appearing on […] to untreated plates identifies the treatment as having killed either or both colonies arising from eukaryotic non-stem cells or from metakaryotic stem cells.
# The assay, in one embodiment, involved plating single cells from an exponentially growing HT-29 cell culture in plastic T-flasks and counting the large colonies apparent five weeks after plating. Untreated control flasks provided the total number of immortal colonies and larger mortal colonies.
# [2] = tested on: HT-29 cells; assay: Microscopic cytology of bell shaped metakaryotic nuclei in treated HT-29 cells (Hoechst, DAPI, Feulgen staining); format: cell-based, human; conditions: for aspect of bell shaped nuclei of metakaryotic colonies at the end of treatment: HT-29 colony assay flasks; for condensation of chromatin in bell shaped metakaryotic nuclei: HT-29 cultures
# [3] = tested on: Capan-1 cells; assay: Microscopic cytology of bell shaped metakaryotic nuclei in treated Capan-1 cells; conditions: Capan-1, equal to or greater than 10 micromolar for about one or more weeks
# [4] = HT-29, 10 micromolar for 24 hours beginning 24 hours after seeding
structure (smiles),measurement,setting,value
O=C(O)CCCc1ccc(N(CCCl)CCCl)cc1 [chlorambucil],surviving large colonies,"[1]; HT-29, ~3000 cells per flask, one day exposure, greater than ~10 micromolar",reduced the surviving large colonies monotonically to zero without displaying a plateau
same,sensitivity of eukaryotic cells relative to metakaryotes to killing,[1],markedly more sensitive
COc1ccc2cc([C@H](C)C(=O)O)ccc2c1 [naproxen],number of immortal colonies,[1],reduce the number of immortal colonies
CN(C)C(=N)N=C(N)N [metformin],further growth of remaining colonies upon trypsinized transfer,"[1]; HT-29, 100, 200 and 400 micromolar, five weeks",do not demonstrate further growth
same,"nature of surviving colonies (metakaryotic cells, growth upon passaging)",[1],did not contain discernable metakaryotic cells nor were they capable of continued growth upon passaging
same,treatment level above which large colonies did not contain metakaryotic cells and did not grow further upon replating (mortal colonies),[1],> 200 micromolar weeks
same,further decrease in total large colony count,"[1]; HT-29, treatment range ~200 to 2000 micromolar weeks",No further significant decrease
same,reduction of the total number of large colonies,"[1]; HT-29, ~1000 cells per flask, treatment levels from zero to ~100 micromolar weeks",about 10%
same,"stem cell number, by fraction of treated cells giving large, growing immortal colonies",[1],reduction of stem cell number
same,exposure period required to assure killing greater than 99% of metakaryotic stem cells,[1],not less than six
same,nuclear chromatin condensation in metakaryotic versus eukaryotic cell nuclei,[2]; 200-2000 micromolar-weeks,metakaryotic but not eukaryotic cell nuclei display nuclear chromatin condensation
same,aspect of bell shaped nuclei of metakaryotic colonies at the end of treatment,[2],displayed recognizable deformed aspects
O=c1[nH]c(=O)n([C@H]2C[C@H](O)[C@@H](CO)O2)cc1C(F)(F)F [trifluorothymidine],effect on eukaryotic cells,[1]; [4],kills nearly all eukaryotic cells
same,effect on survival of metakaryotic cells,[1]; [4],no detectable effect
same,"nature of surviving large colonies (metakaryotic cells, growth upon replating)","[1]; HT-29, 24 hour exposure, ~7 to 17 micromolar",immortal and displayed visible metakaryotic cells by the 64 cell colony forming stage; also recorded: contained metakaryotic cells and grew continuously upon replating; also recorded: contained metakaryotic cells upon microscopic inspection and demonstrated the ability to grow continuously upon passaging
same,applicants' interpretation of selectivity (metakaryotic stem cells versus eukaryotic cells),[1],exterminated the eukaryotic cells in the HT-29 cell population studied but was not toxic to the metakaryotic stem cells
same,sensitivity of eukaryotic cells relative to metakaryotes to killing,[1],markedly more sensitive
Cc1ccc(-c2cc(C(F)(F)F)nn2-c2ccc(S(N)(=O)=O)cc2)cc1 [Celecoxib],treatment level above which large colonies did not contain metakaryotic cells and did not grow further upon replating (mortal colonies),[1],higher than 10 micromolar weeks
same,reduction of the total number of large colonies,"[1]; HT-29, two weeks beginning one day after transfer, ~2 to ~32 micromolar",about 10%
COc1ccc(CCN(C)CCCC(C#N)(c2ccc(OC)c(OC)c2)C(C)C)cc1OC (stereo not drawn) [verapamil],"nature of surviving colonies (metakaryotic cells, growth upon passaging)",[1],did not contain discernable metakaryotic cells nor were they capable of continued growth upon passaging
same,"stem cell number, by fraction of treated cells giving large, growing immortal colonies",[1],reduction of stem cell number
same,exposure period required to assure killing greater than 99% of metakaryotic stem cells,[1],not less than six
same,"fluorescent structures in the cytoplasmic organelle of metakaryotic cells (dsDNA dyes Hoechst, DAPI)","[2]; HT-29, about one or more weeks of treatment","novel large bar structure; also recorded: bright blue fluorescent bars, crosses and more complex figures are observed"
same,chromatin in bell shaped nuclei after Feulgen staining,"[2]; HT-29, e.g. 10 micromolar for about one or more weeks",condensed into rope like structures
same,pyknotic bell shaped nuclei with condensed chromatin,[2]; HT-29 and CAPAN-1 cell cultures,dead (pyknotic) bell shaped metakaryotic cell nuclei; also recorded: pyknotic structures with bell shaped nuclei displaying grossly condensed chromatin structures
same,condensation of chromatin in bell shaped metakaryotic nuclei,[2],observed
same,nuclei of metakaryotic stem cells,[3],pyknotic nuclei
CC(C)Cc1ccc(C(C)C(=O)O)cc1 (stereo not drawn) [ibuprofen],number of immortal colonies,[1],reduce the number of immortal colonies
same,condensation of chromatin in bell shaped metakaryotic nuclei,[2],do not induce the condensation of chromatin
CC[C@]1(O)C[C@@H]2CN(CCc3c([nH]c4ccccc34)[C@@](C(=O)OC)(c3cc4c(cc3OC)N(C)[C@H]3[C@@](O)(C(=O)OC)[C@H](OC(C)=O)[C@]5(CC)C=CCN6CC[C@]43[C@@H]65)C2)C1 [vinblastine],sensitivity of eukaryotic cells relative to metakaryotes to killing,[1],markedly more sensitive
COc1cc2c(c(OC)c1OC)-c1ccc(OC)c(=O)cc1[C@@H](NC(C)=O)CC2 [colchicine],sensitivity of eukaryotic cells relative to metakaryotes to killing,[1],markedly more sensitive
CC(=O)Nc1ccc(O)cc1 [acetaminophen],"nature of surviving colonies (metakaryotic cells, growth upon passaging)",[1],did not contain discernable metakaryotic cells nor were they capable of continued growth upon passaging
same,treatment level above which large colonies did not contain metakaryotic cells and did not grow further upon replating (mortal colonies),[1],higher than 10 micromolar weeks
same,reduction of the total number of large colonies,"[1]; HT-29, two weeks beginning one day after transfer, ~5 to ~25 micromolar",about 10%
same,effect of higher concentrations on cells,"[1]; HT-29, two weeks, concentrations higher than the range of the figure",killed all cells
same,"stem cell number, by fraction of treated cells giving large, growing immortal colonies",[1],reduction of stem cell number
same,applicants' interpretation of selectivity (metakaryotic stem cells versus eukaryotic cells),[1],exterminated the metakaryotic stem cells but were not cytotoxic to the eukaryotic non-stem cells
same,number of immortal colonies,[1],reduce the number of immortal colonies
same,aspect of bell shaped nuclei of metakaryotic colonies at the end of treatment,[2],did not display recognizable deformed pyknotic aspects
same,condensation of chromatin in bell shaped metakaryotic nuclei,[2],do not induce the condensation of chromatin
C[C@H]1c2cccc(O)c2C(=O)C2=C(O)[C@]3(O)C(=O)C(C(N)=O)=C(O)[C@@H](N(C)C)[C@@H]3[C@@H](O)[C@@H]21 [doxycycline],treatment level above which large colonies did not contain metakaryotic cells and did not grow further upon replating (mortal colonies),[1],higher than 4 micromolar weeks
same,reduction of the total number of large colonies,"[1]; HT-29, two weeks beginning one day after transfer, zero to ~10 micromolar",about 8%
